A short description of the series: solvent given as SMILES.

This passage reports absorption maximum results from the Deep4Chem optical property database.

For the setting “in ClC(Cl)Cl”, `c1ccc2c(-c3ccc(-n4c5ccccc5c5ccccc54)cc3)c3c(nc2c1)-c1cc2c(cc1CC3)-c1nc3ccccc3c(-c3ccc(-n4c5ccccc5c5ccccc54)cc3)c1CC2` had an absorption maximum of 377 nm.
Take `CC1=C(c2ccccc2)C2=Cc3c(-c4ccccc4)c(C)c(C)n3[B-](F)(F)[N+]2=C1C`: the absorption maximum (in CC#N) stood at 538 nm.
For the compound `F[B-]1(F)n2c(ccc2-c2cccs2)C(C(F)(F)F)=C2C=CC(c3cccs3)=[N+]21`, the absorption maximum (in CCCCCC) is 665 nm.
As for `Cn1nc(-c2ccccc2)c2n[nH]nc2/c1=N\c1ccccn1`, the absorption maximum is reported as 402 nm (in CC#N), 382 nm (in CCO) and 410 nm (in Cc1ccccc1).
With `C1=C(c2ccccc2)C=C(c2ccccc2)/C1=C/c1ccc2c(c1)Cc1ccccc1-2`, where the note is “in C1CCOC1”, the absorption maximum is on record as 384 nm.
With `C[n+]1cc2ccc3c[n+](C)cc4ccc(c1)c2c34`, the absorption maximum (in CC#N) is given as 418 nm.
For `COc1ccc(/C=C/C2=[O+][B-](F)(F)OC(/C=C/c3ccc(OC)cc3)=C2c2ccccc2)cc1`, the absorption maximum is, setting by setting: (in CC#N) 500 nm; (in CC(C)=O) 500 nm; (in CCOC(C)=O) 496 nm; (in CCOCC) 491 nm; (in ClC(Cl)(Cl)Cl) 493 nm; (in ClCCl) 505 nm.
For the setting “in ClCCl”, `C(S/C=C/c1ccc(-c2ccc(/C=C/SC=C3CCCC3)cc2)cc1)=C1CCCC1` gave an absorption maximum of 352 nm.
`CCOC(=O)c1sc2nc3c(c(C#N)c2c1N)CCCC3` returned an absorption maximum (in c1ccccc1) of 420 nm.
As to `CN(C)c1ccc(C#Cc2ccc3c(N(C)C)cc(-c4ccccc4)cc3c2)cc1`, the absorption maximum runs as follows: (in CC#N) 342.13 nm; (in CCO) 335.73 nm; (in ClCCl) 341 nm.
Compound `O=C(O)CCCc1ccc2ccc3cccc4ccc1c2c34` displayed an absorption maximum (in CO) of 375 nm.
Consider `N#Cc1ccc(-c2ccc(C3=CCCCC3)s2)s1`, for which the absorption maximum is recorded as 366 nm (in C1CCOC1); 366 nm (in CC#N); 366 nm (in CCCCCC); 366 nm (in CCO); 366 nm (in OCCOCCO); 369 nm (in c1ccncc1).
Compound `COCCOCCOCCOCC(COCCOCCOCCOC)Oc1cc(/C=C/c2ccc(/C=C(\C#N)c3ccncc3)cc2)c(OC(COCCOCCOCCOC)COCCOCCOCCOC)cc1/C=C/c1ccc(/C=C(\C#N)c2ccncc2)cc1` showed an absorption maximum (in ClCCl) of 445 nm.
Under “in C1CCCCC1”, `Nc1ccccc1` showed an absorption maximum of 283.13 nm.
Take `CCOC(=O)C1=C(C(=O)OC)N2CCc3cc(OC)c(OC)cc3C2=C[C@H](c2ccc(Cl)cc2)C12c1ccccc1-c1ccccc12`: under “in ClCCl”, the absorption maximum amounted to 310 nm.
With `CCN(CC)c1ccc(Nc2cc3oc(-c4ccc(C#N)cc4)nc3c3ccccc23)cc1`, the absorption maximum runs as follows: (in C1COCCO1) 420 nm; (in CC(C)=O) 420 nm; (in ClCCl) 420 nm; (in c1ccccc1) 420 nm.
Regarding `CCCCCCCCC(=O)Oc1cc2[nH]c(cc2CCOC)c2nc(ccc3[nH]c(cc3CCOC)c3nc1C(CCOC)=C3)C(CCOC)=C2`, the absorption maximum (in Cc1ccccc1) is recorded as 647 nm.
For the compound `O=C1C=C(Nc2ccc([N+](=O)[O-])cc2)C(=O)c2ccccc21`, the absorption maximum (in CO) is on record as 451 nm.
The compound `N#Cc1nn(-c2c(Cl)cccc2Cl)nc1N1CCCC1` yielded an absorption maximum (in CC#N) of 317 nm.
With `c1ccc(N(c2ccccc2)c2ccc(-c3ccc4c(c3)C3(c5cc(-c6ccc(N(c7ccccc7)c7ccccc7)cc6)ccc5-4)c4ccccc4N(c4ccccc4)c4ccccc43)cc2)cc1`, the absorption maximum (in ClCCl) is 372 nm.
As to `CCN(CC)c1ccc2c(c1)oc(=O)c1c(=O)oc3cc(C#Cc4ccc(N(C)C)cc4)ccc3c12`, the absorption maximum runs as follows: (in CS(C)=O) 468 nm; (in ClCCl) 459 nm.
Regarding `c1ccc2cc3c(cc2c1)-c1cccc2cc4ccccc4c-3c12`, the absorption maximum (in CCCCCCC) worked out at 469 nm.
`C(#Cc1cccs1)c1ncc(-c2ccccc2)o1` gave an absorption maximum (in ClCCl) of 325 nm.
Consider `COc1ccc(-c2nc3ccccc3nc2-c2ccc(OC)cc2)cc1`, for which, where the note is “in ClC(Cl)Cl”, the absorption maximum is 368 nm.
`c1cc2ccc3ccc4cc3c2cc1CCCCCCc1ccc2ccc3ccc-4cc3c2c1` yielded an absorption maximum (in Cc1ccccc1) of 336 nm.
`O=S1(=O)C(c2ccsc2)=C(c2ccsc2)c2ccccc21` showed an absorption maximum (in C1CCOC1) of 350 nm.
For `CCCCN(CCCC)c1ccc(C#Cc2cc(C#Cc3c(F)c(F)c(F)c(F)c3F)c(C#Cc3ccc(N(CCCC)CCCC)cc3)cc2C#Cc2c(F)c(F)c(F)c(F)c2F)cc1`, where the note is “in ClCCl”, the absorption maximum is recorded as 462 nm.
In the case of `COc1ccc2ccc3oc(=O)c(-c4ccccc4)nc3c2c1`, the absorption maximum (in c1ccccc1) is listed as 404 nm.
In turn, `CCC1=[N+]2c3c(c4ccc(Oc5c(C)cc(C)cc5C)c5cc6c(Oc7c(C)cc(C)cc7C)ccc7c8cc(CC)n(c8c3c(c54)c67)[B-]2(F)F)=C1` had an absorption maximum (in Cc1ccccc1) of 867 nm.
For `CCn1c2ccccc2c2cc3c(cc21)c1ccccc1n3CC`, the absorption maximum (in ClC(Cl)Cl) was 419 nm.
In turn, `c1ccc(-c2nc3cc4c(cc3n2-c2ccccc2)nc(-c2ccccc2)n4-c2ccccc2)cc1` showed an absorption maximum (in CC#N) of 330 nm.
`O=[N+]([O-])c1cc(/N=N/c2cc3c4c(c2)CCCN4CCC3)cc([N+](=O)[O-])c1`: the absorption maximum (in CCOC(C)=O) was 513 nm.
Where the note is “in C1CCCCC1”, `COc1ccc(-c2ccc(-c3ccc(OC)cc3)cc2)cc1` displayed an absorption maximum of 293 nm.
`CC(C)(C)c1ccc2oc3nc4oc5ccc(-n6c7ccccc7c7cc(-n8c9ccccc9c9ccccc98)ccc76)cc5c4cc3c2c1` had an absorption maximum (in ClC(Cl)Cl) of 348 nm.
In the case of `Cn1c(=O)c(/N=N/c2ccc(S(=O)(=O)O)c3ccccc23)c(O)c2ccccc21`, the absorption maximum is, setting by setting: (in C1CCOC1) 467 nm; (in CC(C)=O) 465 nm; (in CCOC(C)=O) 464 nm; (in CO) 468 nm; (in CS(C)=O) 470 nm; (in Cc1ccccc1) 469 nm. In addition, the absorption maximum reads like this: (in ClCCl) 467 nm; (in O) 456 nm.
On to `O=S(=O)([O-])c1cc(S(=O)(=O)Cl)ccc1C1=c2cc3c4c(c2Oc2c1cc1c5c2CCCN5CCC1)CCC[N+]=4CCC3`, for which the absorption maximum (in O) was 589 nm.
Take `CCCCCCN(CCCCCC)c1ccc(C#Cc2ccc(-c3ccc(C#Cc4ccc(N(CCCCCC)CCCCCC)cc4)cc3)cc2)cc1`: the absorption maximum (in Cc1ccccc1) worked out at 374 nm.
`CN(C)c1ccc(C#Cc2ccc(-c3cc(N(C)C)c4ccccc4c3)cc2)cc1` came in with an absorption maximum (in ClCCl) of 352 nm.
Take `CCCCC(CC)Cn1c2cc(-c3ccc(N(c4ccccc4)c4ccccc4)cc3)c(C#N)cc2c2cc(C#N)c(-c3ccc(N(c4ccccc4)c4ccccc4)cc3)cc21` (centres undefined): the absorption maximum (in ClCCl) was 369 nm.
Still for that read-out and setting: with `CCCCn1c(-c2ccc(-c3nnc(-c4ccc(-c5nc(-c6ccccc6)c(-c6ccccc6)n5CCCC)cc4)o3)cc2)nc(-c2ccccc2)c1-c1ccccc1` the figure was 352 nm.
On to `F[B-]1(F)n2cccc2C(c2ccccc2)=C2C=CC(N3CCOCC3)=[N+]21`, for which the absorption maximum amounted to 473 nm (in CC#N); 514 nm (in CCCCCC); 480 nm (in CCOC(C)=O); 479 nm (in CO); 486 nm (in ClCCl).
As for `F[B-]1(F)n2c(Cl)ccc2C(c2c(Cl)cccc2Cl)=C2C=CC(NCc3ccccc3)=[N+]21`, the absorption maximum turned out to be 479 nm (in CC#N); 523 nm (in CCCCCC); 497 nm (in CCOC(C)=O); 488 nm (in CO); 505 nm (in ClCCl).
For the compound `CC1=C(c2ccc(N(C)C)cc2)C(C)=[N+]2C1=C(c1c(-c3ccccn3)nc3ccccn13)c1c(C)c(-c3ccc(N(C)C)cc3)c(C)n1[B-]2(F)F`, the absorption maximum (in ClCCl) was found to be 574 nm.
As for `CN(C)c1cc(-c2ccc(C#Cc3ccncc3)cc2)cc2ccccc12`, the absorption maximum is on record as 306.26 nm (in CC#N), 309.39 nm (in CCO) and 311 nm (in ClCCl).
`CC1=CC(/C=C/c2ccc(N(C)C)cc2)=[N+]2C1=C(c1ccc(I)cc1)c1c(C)cc(/C=C/c3ccc(N(C)C)cc3)n1[B-]2(F)F` displayed an absorption maximum (in CC#N) of 701 nm.
`COCCOCCOCCOCC(COCCOCCOCCOC)Oc1cc(/C=C/c2ccc(C=C(C#N)C#N)cc2)c(OC(COCCOCCOCCOC)COCCOCCOCCOC)cc1/C=C/c1ccc(C=C(C#N)C#N)cc1` returned an absorption maximum (in ClCCl) of 465 nm.
In the case of `CC(C)c1cc(C(C)C)c(B2c3ccccc3Oc3cc(-n4c5ccccc5c5c6c(c7ccccc7n6-c6ccccc6)c6c(c7ccccc7n6-c6ccccc6)c54)ccc32)c(C(C)C)c1`, the absorption maximum (in Cc1ccccc1) turned out to be 458 nm.
The compound `O=P1(c2ccccc2)c2cccc3ccc4ccc1n4c23` (centres undefined) gave an absorption maximum (in ClCCl) of 412 nm.
The same measure, in the same setting: the result for `CCCCCCN1C(=O)c2cccc3c(-c4ccc(-c5cc(-c6ccc(C)cc6)n(-c6ccccc6)n5)s4)ccc(c23)C1=O` reads 402 nm.
